These results are taken from US12378224B2 (Dong-A Socio Holdings Co., Ltd., priority 2016, dated 2025).

This assay deals with human c-MER catalytic domain (Homo sapiens (Human), UniProt Q12866). The assay is described as follows: TR-FRET Kinase Activity Biochemical Assay (LanthaScreen). As to conditions: 10 uM ATP, 1 hour, kinase not given. An excerpt:
For the SAR (structure-activity relationship) and compound screening, LanthaScreen™ TR-FRET (Time-Resolved fluorescence energy transfer) assay was employed using the phospho-tyrosine specific Terbium (Tb)-labelded antibody with a fluorescein labeled poly-GT (glutamate-tyrosine) as a substrate. Upon excitation at 340 nm by UV, the energy from Tb donor of the antibody is transferred to the fluorescein of the phosphorylated poly GT substrate, and fluorescein emits light at 520 nm. The ratio between the intensity of […] was used to quantify the level of kinase activity. The recombinant proteins of human c-MER and AXL catalytic domains, Fluorescein-labeled poly-GT substrate, Tb-labeled anti-phosphorylated tyrosine antibodies, the kinase assay buffer, and 0.5M EDTA solution were purchased (Life technologies, USA). The TR-FRET assays were carried out in the white low volume 384-well plate (Corning, USA). […] 10 mM EDTA was added to terminate the enzyme reaction, and the level of phosphorylation of poly-GT substrate was determined following 30 min incubation with 2 nM Tb-labeled antibody. The fluorescence intensity was measured with Envision™ plate reader (PerkinElmer, USA).
(TR-FRET usually uses a lanthanide donor and a delayed reading to cut background.)

pIC50: −log10 of the molar value.

Chain of human c-MER catalytic domain (Q12866 587-858): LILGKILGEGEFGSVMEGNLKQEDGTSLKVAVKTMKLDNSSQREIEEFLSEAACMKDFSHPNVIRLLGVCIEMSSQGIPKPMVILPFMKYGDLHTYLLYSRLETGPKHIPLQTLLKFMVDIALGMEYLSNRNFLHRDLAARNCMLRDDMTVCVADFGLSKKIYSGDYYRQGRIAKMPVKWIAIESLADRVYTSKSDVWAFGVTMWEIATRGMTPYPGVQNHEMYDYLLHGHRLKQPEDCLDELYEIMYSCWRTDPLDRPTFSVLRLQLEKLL

By pIC50 is commonly meant −log10 of the IC50, conventionally taken in molar units. A high value points to a low IC50. The molecule `Cn1cc(-c2cnc(N)c(C(=O)N[C@@H]3CCN(C(=O)Oc4cccc(-c5cnn(Cc6ccccc6)c5)c4)C3)c2)cn1` [Example 283, 3-(1-benzyl-1H-pyrazol-4-yl)phenyl (R)-3-(2-amino-5-(1-methyl-1H-pyrazol-4-yl)nicotinamido)pyrrolidine-1-carboxylate] had a pIC50 of 6.00 to 7.00.
The value for `Cn1cc(-c2cnc(N)c(C(=O)N[C@@H]3CCN(C(=O)Oc4cccc(-c5cnn(C6CCNCC6)c5)c4)C3)c2)cn1` [Example 285, 3-(1-(piperidin-4-yl)-1H-pyrazol-4-yl)phenyl (R)-3-(2-amino-5-(1-methyl-1H-pyrazol-4-yl)nicotinamido)pyrrolidine-1-carboxylate] was 6.00 to 7.00; that for `Cn1cc(-c2cnc(N)c(C(=O)N[C@@H]3CCN(C(=O)Oc4cccc(-c5cnn(CCN6CCCC6)c5)c4)C3)c2)cn1` [Example 286, 3-(1-(2-(pyrrolidin-1-yl)ethyl)-1H-pyrazol-4-yl)phenyl (R)-3-(2-amino-5-(1-methyl-1H-pyrazol-4-yl)nicotinamido)pyrrolidine-1-carboxylate] was 6.00 to 7.00.
`Cn1cc(-c2cnc(N)c(C(=O)N[C@@H]3CCN(C(=O)Oc4cc(Cl)cc(-c5ccc(CO)cc5)c4)C3)c2)cn1` [Example 291, 5-chloro-4′-(hydroxymethyl)-[1,1′-biphenyl]-3-yl (R)-3-(2-amino-5-(1-methyl-1H-pyrazol-4-yl)nicotinamido)pyrrolidine-1-carboxylate] gave a negative logarithm of the IC50 (pIC50) of 7.00 to 8.00.
To `CN1CCN(Cc2ccc(-c3cc(Cl)cc(OC(=O)N4CC[C@@H](NC(=O)c5cc(-c6cnn(C)c6)cnc5N)C4)c3)cc2)CC1` [Example 292, 5-chloro-4′-((4-methylpiperazin-1-yl)methyl)-[1,1′-biphenyl]-3-yl (R)-3-(2-amino-5-(1-methyl-1H-pyrazol-4-yl)nicotinamido)pyrrolidine-1-carboxylate] belongs > 8.00; to `Cn1cc(-c2cnc(N)c(C(=O)N[C@@H]3CCN(C(=O)Oc4ccc5ccc(OC6CCNCC6)cc5c4)C3)c2)cn1` [Example 294, 7-(piperidin-4-yloxy)naphthalen-2-yl (R)-3-(2-amino-5-(1-methyl-1H-pyrazol-4-yl)nicotinamido)pyrrolidine-1-carboxylate], 7.00 to 8.00; to `CN(C)CCCOc1ccc2ccc(OC(=O)N3CC[C@@H](NC(=O)c4cc(-c5cnn(C)c5)cnc4N)C3)cc2c1` [Example 295, 7-(3-(dimethylamino)propoxy)naphthalen-2-yl (R)-3-(2-amino-5-(1-methyl-1H-pyrazol-4-yl)nicotinamido)pyrrolidine-1-carboxylate], 7.00 to 8.00.
In the case of `CN(C)CCOc1ccc2ccc(OC(=O)N3CC[C@@H](NC(=O)c4cc(-c5cnn(C)c5)cnc4N)C3)cc2c1` [Example 296, 7-(2-(dimethylamino)ethoxy)naphthalen-2-yl (R)-3-(2-amino-5-(1-methyl-1H-pyrazol-4-yl)nicotinamido)pyrrolidine-1-carboxylate], the pIC50 was 7.00 to 8.00.
To `CN1CCC(Oc2ccc3ccc(OC(=O)N4CC[C@@H](NC(=O)c5cc(-c6cnn(C)c6)cnc5N)C4)cc3c2)CC1` [Example 297, 7-((1-methylpiperidin-4-yl)oxy)naphthalen-2-yl (R)-3-(2-amino-5-(1-methyl-1H-pyrazol-4-yl)nicotinamido)pyrrolidine-1-carboxylate] belongs 6.00 to 7.00; to `CN(C)CCOc1ccc2cc(OC(=O)N3CC[C@@H](NC(=O)c4cc(-c5cnn(C)c5)cnc4N)C3)ccc2c1` [Example 300, 6-(2-(dimethylamino)ethoxy)naphthalen-2-yl (R)-3-(2-amino-5-(1-methyl-1H-pyrazol-4-yl)nicotinamido)pyrrolidine-1-carboxylate], 6.00 to 7.00; to `CN(C)CCCOc1ccc2cc(OC(=O)N3CC[C@@H](NC(=O)c4cc(-c5cnn(C)c5)cnc4N)C3)ccc2c1` [Example 301, 6-(3-(dimethylamino)propoxy)naphthalen-2-yl (R)-3-(2-amino-5-(1-methyl-1H-pyrazol-4-yl)nicotinamido)pyrrolidine-1-carboxylate], 6.00 to 7.00.
In the case of `Cn1cc(-c2cnc(N)c(C(=O)N[C@@H]3CCN(C(=O)Oc4ccc5cc(OC6CCNCC6)ccc5c4)C3)c2)cn1` [Example 302, 6-(piperidin-4-yloxy)naphthalen-2-yl (R)-3-(2-amino-5-(1-methyl-1H-pyrazol-4-yl)nicotinamido)pyrrolidine-1-carboxylate], the pIC50 was 7.00 to 8.00.
For `Cn1cc(-c2cnc(N)c(C(=O)N[C@@H]3CCN(C(=O)Oc4cccc(OCC5CCNCC5)c4)C3)c2)cn1` [Example 304], the pIC50 is 6.00 to 7.00.
`Cn1cc(-c2cnc(N)c(C(=O)N[C@@H]3CCN(C(=O)Oc4cccc(-c5ccc(CNCC6CNC6)cc5)c4)C3)c2)cn1` [Example 309, 4′-(((azetidin-3-ylmethyl)amino)methyl)-[1,1′-biphenyl]-3-yl (R)-3-(2-amino-5-(1-methyl-1H-pyrazol-4-yl)nicotinamido)pyrrolidine-1-carboxylate] showed a pIC50 of 7.00 to 8.00.
The value for `Cn1cc(-c2cnc(N)c(C(=O)N[C@@H]3CCN(C(=O)Oc4cccc(-c5ccc(CN6CCC(N)CC6)cc5)c4)C3)c2)cn1` [Example 317, 4′-((4-aminopiperidin-1-yl)methyl)-[1,1′-biphenyl]-3-yl (R)-3-(2-amino-5-(1-methyl-1H-pyrazol-4-yl)nicotinamido)pyrrolidine-1-carboxylate] was 7.00 to 8.00; that for `Cn1cc(-c2cnc(N)c(C(=O)N[C@@H]3CCN(C(=O)Oc4cccc(-c5ccc(CNCC(=O)O)cc5)c4)C3)c2)cn1` [Example 326, (R)-((3′-((3-(2-amino-5-(1-methyl-1H-pyrazol-4-yl)nicotinamido)pyrrolidine-1-carbonyl)oxy)-[1,1′-biphenyl]-4-yl)methyl)glycine] was 6.00 to 7.00; that for `Cn1cc(-c2cnc(N)c(C(=O)N[C@@H]3CCN(C(=O)Oc4cccc(-c5ccc(CN6CC[C@@H](N)C6)cc5)c4)C3)c2)cn1` [Example 330, 4′-(((R)-3-aminopyrrolidin-1-yl)methyl)-[1,1′-biphenyl]-3-yl (R)-3-(2-amino-5-(1-methyl-1H-pyrazol-4-yl)nicotinamido)pyrrolidine-1-carboxylate] was 7.00 to 8.00.
The molecule `Cn1cc(-c2cnc(N)c(C(=O)N[C@@H]3CCN(C(=O)Oc4cccc(-c5ccc(CN6CC[C@H](N)C6)cc5)c4)C3)c2)cn1` [Example 331, 4′-(((S)-3-aminopyrrolidin-1-yl)methyl)-[1,1′-biphenyl]-3-yl (R)-3-(2-amino-5-(1-methyl-1H-pyrazol-4-yl)nicotinamido)pyrrolidine-1-carboxylate] had a pIC50 of 7.00 to 8.00.
In the case of `Cn1cc(-c2cnc(N)c(C(=O)N[C@@H]3CCN(C(=O)Oc4cccc(-c5ccc(CN6CCC[C@H](N)C6)cc5)c4)C3)c2)cn1` [Example 332, 4′-(((S)-3-aminopiperidin-1-yl)methyl)-[1,1′-biphenyl]-3-yl (R)-3-(2-amino-5-(1-methyl-1H-pyrazol-4-yl)nicotinamido)pyrrolidine-1-carboxylate], the pIC50 is 7.00 to 8.00.
The value for `Cn1cc(-c2cnc(N)c(C(=O)N[C@@H]3CCN(C(=O)Oc4cccc(-c5ccc(CN6CCCC6)cc5)c4)C3)c2)cn1` [Example 333, 4′-(pyrrolidin-1-ylmethyl)-[1,1′-biphenyl]-3-yl (R)-3-(2-amino-5-(1-methyl-1H-pyrazol-4-yl)nicotinamido)pyrrolidine-1-carboxylate] was 7.00 to 8.00; that for `Cn1cc(-c2cnc(N)c(C(=O)N[C@@H]3CCN(C(=O)Oc4cccc(-c5ccc(CN6CCCCC6)cc5)c4)C3)c2)cn1` [Example 334, 4′-(piperidin-1-ylmethyl)-[1,1′-biphenyl]-3-yl (R)-3-(2-amino-5-(1-methyl-1H-pyrazol-4-yl)nicotinamido)pyrrolidine-1-carboxylate] was 6.00 to 7.00; that for `Cn1cc(-c2cnc(N)c(C(=O)N[C@@H]3CCN(C(=O)Oc4cccc(-c5ccc(CN6CCOCC6)cc5)c4)C3)c2)cn1` [Example 335, 4′-(morpholinomethyl)-[1,1′-biphenyl]-3-yl (R)-3-(2-amino-5-(1-methyl-1H-pyrazol-4-yl)nicotinamido)pyrrolidine-1-carboxylate] was 6.00 to 7.00.
The value for `Cn1cc(-c2cnc(N)c(C(=O)N[C@@H]3CCN(C(=O)Oc4cccc(-c5cccc(CN6CC[C@@H](N)C6)c5)c4)C3)c2)cn1` [Example 336, 3′-(((R)-3-aminopyrrolidin-1-yl)methyl)-[1,1′-biphenyl]-3-yl (R)-3-(2-amino-5-(1-methyl-1H-pyrazol-4-yl)nicotinamido)pyrrolidine-1-carboxylate] was 6.00 to 7.00; that for `Cn1cc(-c2cnc(N)c(C(=O)N[C@@H]3CCN(C(=O)Oc4cccc(-c5cccc(CN6CCC[C@@H](N)C6)c5)c4)C3)c2)cn1` [Example 338, 3′-(((R)-3-aminopiperidin-1-yl)methyl)-[1,1′-biphenyl]-3-yl (R)-3-(2-amino-5-(1-methyl-1H-pyrazol-4-yl)nicotinamido)pyrrolidine-1-carboxylate] was 7.00 to 8.00; that for `Cn1cc(-c2cnc(N)c(C(=O)N[C@@H]3CCN(C(=O)Oc4cccc(-c5cccc(CN6CCC[C@H](N)C6)c5)c4)C3)c2)cn1` [Example 339, 3′-(((S)-3-aminopiperidin-1-yl)methyl)-[1,1′-biphenyl]-3-yl (R)-3-(2-amino-5-(1-methyl-1H-pyrazol-4-yl)nicotinamido)pyrrolidine-1-carboxylate] was 6.00 to 7.00.
